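Where inhibition never reached the appropriate level, the endpoint shown equals the highest concentration tested. Otherwise, values were interpolated linearly from a five-concentration, 48-hour dose response in 96-well plates. GI50 = concentration required for 50% inhibition of growth. Definition used: TGI = concentration required for complete inhibition of growth.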
Experiments:
Assay in all cases: NCI-60 cell line screen, 48 h
786-0 renal = tested on: 786-0 renal
A549 NSCLC = tested on: A549 NSCLC
ACHN renal = tested on: ACHN renal
HS 578T breast = tested on: HS 578T breast
KM12 colon = tested on: KM12 colon
MOLT-4 leukemia = tested on: MOLT-4 leukemia
OVCAR-3 ovarian = tested on: OVCAR-3 ovarian
SF-268 CNS = tested on: SF-268 CNS
SK-MEL-5 melanoma = tested on: SK-MEL-5 melanoma
UACC-62 melanoma = tested on: UACC-62 melanoma

SMILES	GI50 (786-0 renal) [µM]	TGI (786-0 renal) [µM]	GI50 (A549 NSCLC) [µM]	TGI (A549 NSCLC) [µM]	GI50 (ACHN renal) [µM]	TGI (ACHN renal) [µM]	GI50 (HS 578T breast) [µM]	TGI (HS 578T breast) [µM]	GI50 (KM12 colon) [µM]	TGI (KM12 colon) [µM]	GI50 (MOLT-4 leukemia) [µM]	TGI (MOLT-4 leukemia) [µM]	GI50 (OVCAR-3 ovarian) [µM]	TGI (OVCAR-3 ovarian) [µM]	GI50 (SF-268 CNS) [µM]	TGI (SF-268 CNS) [µM]	GI50 (SK-MEL-5 melanoma) [µM]	TGI (SK-MEL-5 melanoma) [µM]	GI50 (UACC-62 melanoma) [µM]	TGI (UACC-62 melanoma) [µM]
COc1ncnc2c(-c3ccccc3)cn(COCc3ccccc3)c12	4.55	> 100	3.3	28.7	3.82	> 100	7.8	> 100	3.1	19.9	2.7	7.12	5.09	20.1	4.25	> 100	1.13	2.34	2.1	8.81
C/C=C(\C)C(=O)NC1=CC[C@@]2(C)C(=CCC3C2CC[C@@]2(C)C3CC[C@@H]2C(C)N(C)C)C1=O (some centres not stated)	2.54	7.45	4.99	23.4	8.03	> 47	4.65	23.2	2.85	13.7	0.843	6.43	2.5	12.8	2.14	6.93	1.39	2.95	1.82	3.85
CCOC(=O)/C(C=Nc1ccc(-c2nc3ccccc3[nH]2)cc1)=C(/C)O	11	23.5	12	29.9	15.4	42.4	11.4	30.5	7.8	24			12.7	31.7	11.7	34.5	7.71	15.5	8.59	17.6
OC(Cc1ccncc1)C(Cl)(Cl)Cl (configuration not stated)	> 100	> 100	> 100	> 100	> 100	> 100	> 100	> 100	> 100	> 100	0.0988	> 100	17.4	> 100	> 100	> 100			> 100	> 100
CC1(C)C2CCC13C(=O)C1OC3(C2)C2C(=O)c3cc4ccccc4cc3C(=O)C12 (configuration not stated)	6	36.6	26.2	76.3	10.4	26.3	53.7	> 100	3.79	25.1	1.76	19.2			5.29	82.4				
COC12C=C/C(=C(/C(=O)OCc3cncnc3)C(=O)CCCCCCCCC3(OC)C=C/C(=C(/C(=O)OCc4cncnc4)C(=O)CCCCCCCC1)O3)O2	0.433	1.47	0.848	2.24	0.36	1.08	1.3	6.24	0.305	1.28			0.195	1.07	0.312	4			0.533	1.21
O=C(Nc1ccc([As](=O)(O)O)cc1)Nc1cccc(Cl)c1Cl		> 100		> 100		> 100		84.8		> 100				> 100		> 100		> 100		> 100
CCOC(=O)c1c(C)nc2c(c1N)CC(=O)N2Cc1ccc(OC)cc1	3.45	27.8			9.56	> 100	4.78	> 100	> 100	> 100	81.3	> 100	6.24	> 100	4.29	> 100	> 100	> 100	34.1	> 100
CCOc1cccc(/C=N/N=C2\C(=O)Nc3c(Cl)cc(Cl)cc32)c1O		> 100		> 100		> 100		> 100		> 100		> 100		> 100				> 100		> 100
CNC(=O)Nc1nc2ccc([N+](=O)[O-])cc2[nH]1		> 100		> 100		> 100		> 100		> 100		> 100		> 100		> 100		> 100		
COc1ccc(C(=S)N2CCN(c3cccc(C)c3)CC2)cc1OC	7.54	> 100	6.37	> 100	5.92	> 100	3.16	31.7	2.82	> 100			2.06	5.16	6.18	86.8	4.55	> 100	4.1	> 100
O=C(c1ccccc1)c1ccccc1-c1ccccc1	10.6	90.7	4.87	> 100	9.46	> 100	1.58	10.2	1.16	43.3			1.72	4.55	6.55	> 100	3.2	12.5	4.43	> 100
